# Assay results: US9456973B2, “Methionyl-methionine stereoisomers and use thereof in cosmetics” (EVONIK DEGUSSA GMBH, priority 2013, dated 2016)
# How the values were obtained:
# Design in all cases: species or system human
# [1] = Hair fatigue breakage of bleached hair, Dia-stron Automatic Cyclic Tester (CYC800), Weibull analysis; conditions: simple hair conditioner (Table 3), 2.0%; Constant Stress method; vehicle 14 190 cycles; FIG. 8
# Procedure: A tress section of human Euro-Natural hair, remis, double-drawn with a length of 23 cm and a width of 2.0 cm with a weight of 2.0 g and dark-brown color was wetted under a tap of running water over the course of 10 seconds. 8 g of a 30% strength aqueous hydrogen peroxide solution were mixed with 4 g of Basler Blond Claire bleaching powder, 2 mL of a 25% strength aqueous ammonia solution were added, and combined again and 8 g of the resulting paste were massaged into the tress section with the help of a comb and the protected hands. […]
# Afterwards, per treatment method 40 hairs were removed from the tress section and in each case the middle section of a hair with a length of 3 cm was crimped between two brass sleeves with plastic coating on the inside. The average area of each individual hair was measured using a Dia-stron FDAS760 fibre dimensional system and UvWin PC application software. […]
# In order to measure the hair fatigue breakage, the hair samples were transferred to the sample cassette of a Dia-stron Automatic Cyclic Tester (CYC800) and climatized at 22° C. and 50-55% rel. atmospheric humidity. […] The characteristic life span a of a hair fibre is calculated by means of Weibull analysis. […]
# [2] = Repair of bleached hair: tensile elongation forces by Dia-stron Tensile Tester MTT 670
# Procedure: A tress section of human Euro-Natural hair, remis, double-drawn with a length of 23 cm and a width of 2.0 cm with a weight of 2.0 g and dark-brown color was wetted under a tap of running water over the course of 10 seconds. 8 g of a 30% strength aqueous hydrogen peroxide solution were mixed with 4 g of Basler Blond Claire bleaching powder, 2 mL of a 25% strength aqueous ammonia solution were added, and combined again and 8 g of the resulting paste were massaged into the tress section with the help of a comb and the protected hands. After a contact time of 30 minutes at room temperature, the tress section was washed for 2 minutes under running tap water at ca. 35° C. and then dried by means of an electronic hair dryer for 3 minutes while combing at the same time. The entire procedure was repeated once starting from the wetting of the tress section.
# (§1) Afterwards, per treatment method 40 hairs were removed from the tress section and in each case the middle section of a hair with a length of 3 cm was crimped between two brass sleeves with plastic coating on the inside. The average area of each individual hair was measured using a Dia-stron FDAS760 fibre dimensional system and UvWin PC application software. The hair samples were then transferred to the sample cassette of a Dia-stron Tensile Tester MTT 670 and admixed in each case with demineralized water adjusted to pH 7 using citric acid. A measurement of the individual hair strands with the Single Fiber Method (Extension 20%, Rate 20 mm/min, Gauge Force 2, Maximum Force 200, Break Threshold 5, Sample Size 30 mm) was started. The hair samples were then removed from the sample cassette and covered with demineralized water in a plastic bowl.
# (§2) For the treatment with hair conditioner, the water was removed after 30 minutes and the hair samples were covered with hair conditioner. After a contact time of 30 minutes, each individual hair sample was washed under a stream of running water at ca. 35° C. for 6 seconds. The hair samples were dried overnight at 22° C. and 50% relative atmospheric humidity.
# For the treatment with shampoo, the water was removed after 30 minutes and the hair samples were covered with shampoo. After a contact time of 5 minutes, each individual hair sample was washed under a stream of running water at ca. 35° C. for 6 seconds. The hair samples were briefly dried by means of an electronic hair dryer and the shampoo treatment was repeated four times.
# After the particular treatment, the measurement of the individual hair samples starting with the transfer to the sample cassette of the Dia-stron Tensile Tester MTT 670 was repeated.
# The evaluation of the data takes place by reference to the parameters modulus of elasticity (E modulus), Load and/or Work. If a hair is pulled, the elongation is initially proportional to the applied force (Hooke's range). The modulus of elasticity describes the applied force per elongation (in Newton/mm^2) in the Hooke's range and therefore represents the tensile strength of a hair fibre. As soon as the hair has been elongated to a length of approximately 2%, it further deforms very rapidly up to ca. 25-30% of its original length, where the increase in the force required for this is minimal (Yield range). The parameter Load corresponds to the force (in Newtons) which is required to elongate the hair up to 15% and the parameter Work indicates the work required to elongate the hair from 0-15% (in Joules).
# [3] = Protection of hair against thermal stress (smoothing iron): hair fatigue breakage, Automatic Cyclic Tester; conditions: FIG. 11
# Procedure: A tress section of human Euro-Natural hair, remis, double-drawn with a length of 23 cm and a width of 2.0 cm with a weight of 2.0 g and dark-brown color was wetted under a tap of running water over the course of 10 seconds. Then, 2 mL of shampoo (28.6% Texapon NSO in dist. water) were massaged into the hair for 30 seconds, washed out for a further 30 seconds under running tap water at ca. 35° C., and the hair tress was squeezed between two fingers and combed six times. The hair tress was dipped for 1 minute in 300 mL of active ingredient solution (active ingredient, demin. water, lactic acid, pH 5.5), squeezed between two fingers and rinsed for 30 seconds under running tap water at ca. 35° C. and combed. […]
# Afterwards, 50 hairs were removed from the tress section and in each case the middle section of a hair with a length of 3 cm was crimped between two brass sleeves with plastic coating on the inside. The average area of each individual hair was measured using a Dia-stron FDAS760 fibre dimensional system and UvWin PC application software.
# The hair samples were then transferred to the sample cassette of a Dia-stron Automatic Cyclic Tester (CYC800) and climatized at 22° C. and 50-55% rel. atmospheric humidity. […] The probability of survival and the characteristic life span a of a hair fibre were calculated by means of Weibull analysis.
# [4] = Protection of hair against thermal stress (smoothing iron): denaturation temperature by differential scanning calorimetry; conditions: preventative treatment with active ingredient solution pH 5.5; vehicle 137.9° C.; FIG. 12
# Procedure: A tress section of human Euro-Natural hair, remis, double-drawn with a length of 23 cm and a width of 2.0 cm with a weight of 2.0 g and dark-brown color was wetted under a tap of running water over the course of 10 seconds. Then, 2 mL of shampoo (28.6% Texapon NSO in dist. water) were massaged into the hair for 30 seconds, washed out for a further 30 seconds under running tap water at ca. 35° C., and the hair tress was squeezed between two fingers and combed six times. The hair tress was dipped for 1 minute in 300 mL of active ingredient solution (active ingredient, demin. water, lactic acid, pH 5.5), squeezed between two fingers and rinsed for 30 seconds under running tap water at ca. 35° C. and combed. The hair was dried using an electronic hair dryer for 3 minutes with simultaneous combing and then stored overnight in a climatically controlled chamber (37° C., 50% rel. atmospheric humidity).
# The tress section was drawn four times in each case for 30 seconds through a smoothing iron (˜210° C.), which was pressed onto the tress by means of a 630 g weight. This treatment was repeated a total of five times from the wetting of the hair and shampoo treatment (in total 20 draws through the smoothing iron). […]
# [5] = Repair of alkaline smoothed hair: tensile elongation forces by Tensile Tester; conditions: simple hair conditioner (Table 8); 0.5% DD/LL 1:1, 0.5% L-methionine or 2.0% wheat protein (25% active); vehicle 0.43 mN; FIG. 9
# Procedure: as §1
# as §2, with “humidity. […]” for “humidity.”
# (§3) Afterwards, 40 hairs were removed from the tress section and measured as described in Example 1. […]
# [6] = Repair of reductively smoothed hair: tensile elongation forces by Tensile Tester; conditions: simple hair conditioner (Table 9); 0.5% DD/LL 1:1 or 2.0% wheat protein (25% active); FIG. 10
# Procedure: as §1
# as §2, with “humidity. […]” for “humidity.”
# as §3
Structure (SMILES),characteristic life span α: number of cycles in which 63.2% of all hair fibres tear [1],"improvement of Load at 15% elongation (Load 15%) ([2]; expanded hair conditioner (Table 4), 1.0% DD/LL/LD/DL 35:35:65:65 or 4.0% wheat protein (25% active), vehicle 1.28 mN, FIG. 5) [mN]","improvement of Work up to 15% elongation (Work 15%) ([2]; expanded hair conditioner (Table 4), 1.0% DD/LL/LD/DL 35:35:65:65 or 4.0% wheat protein (25% active), vehicle 3.51 μJ, FIG. 6) [µJ]","improvement of Load at 15% elongation (Load 15%) ([2]; shampoo (Table 5), 1.00% DD/LL/LD/DL 35:35:65:65, contact 5 minutes, five treatments, vehicle 0.46 mN, FIG. 7) [mN]","improvement of Work up to 15% elongation (Work 15%) ([2]; shampoo (Table 5), 1.00% DD/LL/LD/DL 35:35:65:65, contact 5 minutes, five treatments, vehicle 2.46 μJ) [µJ]","improvement of Load at 15% elongation (Load 15%) ([2]; simple hair conditioner (Table 3), 2.0% active, DD/LL/LD/DL = 1:1:1:1, contact 30 minutes, vehicle 2.65 mN, FIG. 3) [mN]","improvement of Work up to 15% elongation (Work 15%) ([2]; simple hair conditioner (Table 3), 2.0% active, DD/LL/LD/DL = 1:1:1:1, contact 30 minutes, vehicle 11.0 μJ, FIG. 4) [µJ]","number of cycles at which 20% of the hair remain intact ([3]; preventative treatment with active ingredient solution pH 5.5, DD/LL weight ratio 1:1, vehicle 5500)","number of cycles at which 10% of the hair did not tear ([3]; preventative treatment with active ingredient solution pH 5.5, vehicle 8000)",hair denaturation temperature (TD) [4] [°C],improvement of Load at 15% elongation (Load 15%) [5] [mN],improvement of Load at 15% elongation (Load 15%) relative to vehicle [6] [mN],"repair effect (Load 15%, Work 15%) compared with vehicle hair conditioner, in words ([2]; simple hair conditioner (Table 3), 2.0% raw material, FIGS. 3 and 4)"
CSCCC(N)C(=O)NC(CCSC)C(=O)O (racemic) [DD/LL/LD/DL-methionyl-methionine],33 980 cycles,4.85,18.2,1.33,2.58,4.14,19.4,,,,,,
CSCCC(N)C(=O)NC(CCSC)C(=O)O (centres unmarked) [DD/LL-methionyl-methionine],,,,,,,,10 000 cycles,22 000 cycles,139.9,3.76,0.96,
CSCC[C@H](N)C(=O)O [L-methionine],,,,,,,,,,,2.73,,could be further increased neither
